Experimental data taken from patent publication US12097260B2, “Temperature-responsive degradable hydrogels” (priority 2017, dated 2024).
Read-outs that look alike come from different tables or passages of the source.

Key:
[1] = cited from earlier work
[2] = dog, in vivo; cited from earlier work
Solubility in water = type: physicochemical
E. coli (25922) = experiment: Minimum biofilm eradication concentration (MBEC) on rabbit muscle; type: cell-based
Experimental: (§1) MBEC of biofilms grown on rabbit muscle specimens in vitro was determined. The goal of the study was to compare the relative spectrum of antimicrobial activity of TOB and VANC either alone or in combination. […] This method also allows for controlled culture conditions and quantitative data without confounding phenomena that would be present in an animal model of infection such as variability throughout a single infection, host immune function, and release/transport of antimicrobials.
(§2) Aseptically obtained rabbit muscle samples (˜40 mg) were incubated in bacterial suspension for 3 days to allow biofilm growth. Tissue specimens were then rinsed and placed in separate wells of a 96-well plate. Medium containing various concentrations of antimicrobials (4000, 2000, 1000, 750, 500, 250, 125, 64, 32, 16, and 0 μg/mL) were then added to the wells containing the contaminated tissue samples. Plates were then incubated for either 6, 24, or 72 hours at 37° C. Following this “exposure time,” the antimicrobial-containing medium was removed and specimens were rinsed with antimicrobial-free growth medium at least 4 times to remove any residual antimicrobials. Then the specimens were subcultured in separate test tubes containing antimicrobial-free medium and incubated at 37° C.
(§3) In each series of specimens for a given strain, antimicrobial treatment, and exposure time, the lowest antimicrobial concentration showing no growth after 21 day subculture was measured to be the MBEC. If all subcultures were positive, the MBEC was determined to be >4000 μg/mL. Selected positive subcultures were confirmed by culture identification at a third-party diagnostic laboratory.

E. faecalis (29212) = experiment: as above; type: cell-based
Experimental: as §1, §2, §3

P. aeruginosa (27853) = experiment: as above; type: cell-based
Experimental: as §1, §2, §3

S. aureus (49230) = experiment: as above; type: cell-based
Experimental: as §1, §2, §3

S. aureus (BAA 1556) = experiment: as above; type: cell-based
Experimental: as §1, §2, §3

S. aureus (BAA 1680) = experiment: as above; type: cell-based
Experimental: as §1, §2, §3

S. epidermidis (29886) = experiment: as above; type: cell-based
Experimental: as §1, §2, §3

S. epidermidis (35984) = experiment: as above; type: cell-based
Experimental: as §1, §2, §3

S. epidermidis (700583) = experiment: as above; type: cell-based
Experimental: as §1, §2, §3

[3] = test system: Ten laboratory standard bacterial strains; experiment: MBEC summary over the bacterial strains tested; type: cell-based; conditions: for Strains with MBEC>1,000 μg/mL: 24 and 72 hr exposure
Experimental: Ten laboratory standard bacterial strains intended to represent the spectrum of pathogens found in surgical site infections were evaluated: 3 S. aureus (2 methicillin-resistant, 1 methicillin-sensitive), 4 S. epidermidis (1 methicillin-resistant, 3 methicillin-sensitive), K Faecalis, P. Aeruginosa, and E. Coli (ATCC #BAA-1556, BAA-1680, 49230, 35984, 29886, 700583, 14990, 29212, 27853, and 25922). Both MRSA strains tested (BAA-1556, BAA-1680) are susceptible or intermediately susceptible to both TOB and VANC. S. epidermidis (35984), P. aeruginosa (27853), and E. faecalis (29212) are tobramycin-resistant. None of the gram-positive organisms tested are resistant to vancomycin. Vancomycin is not effective against gram-negative bacteria (E. coli, P. aeruginosa).
as §3

S. aureus ATCC 49230 = experiment: Rabbit infection treatment model; type: in vivo; conditions: comparator treatments
Experimental: The present studies utilized the same rabbit infection treatment model initially adapted from Nelson and colleagues delivering tobramycin mixed into the hydrogel by the methods described herein. Twenty rabbits were infected with S. aureus ATCC 49230 and six rabbits were infected with MRSA ATCC BAA-1556. The polymer used in the hydrogels was PNJ18-DBLA with the composition reported in Table 34, and the hydrogel contained 3.14 wt % tobramycin as an active agent which was dissolved separately at the time of use and mixed with polymer solution by end-to-end syringe mixing.

[4] = Degradation vs. incubation temperature in 0.2 M phosphate buffer (accelerated stability method); type: physicochemical
Experimental: A high concentration of phosphate ions is known to decrease the LCST, an effect known as “salting-out.” Thus, the LCST values measured in this study are lower than for the same polymer in PBS. The polymer was dissolved at 3 mg/mL in 0.2 M phosphate buffer (pH 7.4). […] The buffer was not replaced. This was done to maintain a controlled experiment between temperatures because the samples at low temperatures contained polymer solution, preventing exchange of the buffer. Tubes contained transparent solution at 4° C. and slightly turbid solution at 22° C. Samples incubated at 40-80° C. formed opaque, milky solutions immediately upon heating. After overnight storage, samples incubated at 40-80° C. contained a separated solid precipitate phase at the bottom of the tube, and transparent overlying buffer. […] The LCST of each sample was determined using a cloud point method. […] At each temperature, the absorbance of the solution was measured using a spectrophotometer (450 nm). The temperature at which the absorbance was half of the maximum value was recorded as the LCST. […] For temperatures at which 30° C. was not measured, linear interpolation between the nearest two data points was used to calculate the time at which LCST reached 30° C. […] A separate study evaluated the polymer PNJ1.3-DB20 using the same methods with incubation at 4, 37, 60, and 80° C. in 0.2 M phosphate buffer (pH 7.4). […]

[5] = Effect of comonomers on LCST (slope of LCST vs. mol %); type: physicochemical; conditions: comonomer in NIPAAm-based temperature-responsive polymers
Excerpt: The effect on LCST of a comonomer can be determined by preparing polymers with varying content and evaluating the slope of a line of best fit for the plot of LCST vs. mol % X, where X is the comonomer.

[6] = Stability of hydrophobic comonomers in 95° C. stress conditions, pH 4, titration; type: physicochemical; conditions: up to 14 days at 95° C.
Experimental: Stability of additional monomers was also evaluated in 95° C. stress conditions as hydrophobic monomers with the function of decreasing the LCST. […] The polymers were dissolved at 50 mg/mL in 0.2 M sodium acetate-acetic acid buffer (pH 4). Separate samples of 5 mL each were incubated at 95° C. for 0, 2, 4, 7, or 14 days to evaluate stability of the hydrophobic monomers, as NIPAAm and JAAm are known to be relatively stable in these conditions. After the designated time, samples were cooled and stirred to re-dissolve the polymer, and the solution was dialyzed to remove salts and any degradants. Then 100 mg of the recovered material for each sample was dissolved in 10 mL deionized water and evaluated for acid content by titration using phenolphthalein as the indicator and 1 mM NaOH as the titrant. The titration data were corrected against a control sample which contained only deionized water, as about 0.9 mL of titrant in 10 mL was required for the indicator to change color.

CCCCN1CCCCC1C(=O)Nc1c(C)cccc1C (stereo not drawn) [bupivacaine]
Water solubility [1]: approximately 200 μg/mL
Water solubility ([1]; higher pH above 7.64): less than 0.1 wt %
Water solubility ([1]; pH≈6): 2-5 wt %
Toxic systemic levels [2]: 1,000-2,000 ng/mL

NC[C@H]1O[C@H](O[C@H]2[C@H](O)[C@@H](O[C@H]3O[C@H](CO)[C@@H](O)[C@H](N)[C@H]3O)[C@H](N)C[C@@H]2N)[C@H](N)C[C@@H]1O [TOB, tobramycin]
Solubility in aqueous solutions (Solubility in water; over a range of pH values): > 30 wt %
MBEC (E. coli (25922); 6 hr exposure): 250 µg/mL
MBEC (E. coli (25922); 24 hr exposure): 62 µg/mL
MBEC (E. coli (25922); 72 hr exposure): 62 µg/mL
MBEC (E. faecalis (29212); 6 hr exposure): >4000 µg/mL
MBEC (E. faecalis (29212); 24 hr exposure): >4000 µg/mL
MBEC (E. faecalis (29212); 72 hr exposure): >4000 µg/mL
MBEC (P. aeruginosa (27853); 6 hr exposure): 2000 µg/mL
MBEC (P. aeruginosa (27853); 24 hr exposure): 375 µg/mL
MBEC (P. aeruginosa (27853); 72 hr exposure): 62 µg/mL
MBEC (S. aureus (49230); 6 hr exposure): 500 µg/mL
MBEC (S. aureus (49230); 24 hr exposure): 375 µg/mL
MBEC (S. aureus (49230); 72 hr exposure): 250 µg/mL
MBEC (S. aureus (BAA 1556); 6 hr exposure): 2000 µg/mL
MBEC (S. aureus (BAA 1556); 24 hr exposure): 375 µg/mL
MBEC (S. aureus (BAA 1556); 72 hr exposure): 250 µg/mL
MBEC (S. aureus (BAA 1680); 6 hr exposure): >4000 µg/mL
MBEC (S. aureus (BAA 1680); 24 hr exposure): >4000 µg/mL
MBEC (S. aureus (BAA 1680); 72 hr exposure): 4000 µg/mL
MBEC (S. epidermidis (29886); 6 hr exposure): 125 µg/mL
MBEC (S. epidermidis (29886); 24 hr exposure): 125 µg/mL
MBEC (S. epidermidis (29886); 72 hr exposure): 31 µg/mL
MBEC (S. epidermidis (35984); 6 hr exposure): >4000 µg/mL
MBEC (S. epidermidis (35984); 24 hr exposure): >4000 µg/mL
MBEC (S. epidermidis (35984); 72 hr exposure): >4000 µg/mL
MBEC (S. epidermidis (700583); 6 hr exposure): 125 µg/mL
MBEC (S. epidermidis (700583); 24 hr exposure): 250 µg/mL
MBEC (S. epidermidis (700583); 72 hr exposure): 375 µg/mL
Strains with MBEC>1,000 μg/mL [3]: 3 strains
# Strains w/ MBEC ≥1000 μg/mL ([3]; 6 hr exposure): 5/10
# Strains w/ MBEC ≥1000 μg/mL ([3]; 24 hr exposure): 3/10
Max. MBEC ([3]; 24 hr exposure): >4000 µg/mL
Median MBEC ([3]; 24 hr exposure): 250 µg/mL
# Strains w/ MBEC ≥1000 μg/mL ([3]; 72 hr exposure): 3/10
Rabbits that remained infected (S. aureus ATCC 49230): 4/7

poly(NIPAAm-co-DBLA-co-JAAm) [PNJ18-DBLA]
Degradation at 22° C., times faster than at 4° C. [4]: 3.63 times
Degradation at 80° C., times faster than at 40° C. [4]: 11.67 times

C=CC(=O)OC1C(=O)OCC1(C)C (stereo not drawn) [DBLA, dimethyl butyrolactone acrylate]
Effect on LCST [5]: −1.8 ° C./mol %

C=CC(=O)O [Acrylic acid]
Effect on LCST [5]: +2.6 ° C./mol %

C=C(C)C(=O)OCCCC [BMA, butyl methacrylate]
Effect on LCST [5]: −0.62 ° C./mol %

C=CC(=O)NC(C)(C)C [Tert-butyl acrylamide, tert-butyl acrylamide]
Effect on LCST [5]: −0.41 ° C./mol %

C=CC(=O)OCCCC [Butyl acrylate, butyl acrylate]
Effect on LCST [5]: −0.44 ° C./mol %

CN[C@H](CC(C)C)C(=O)N[C@H]1C(=O)N[C@@H](CC(N)=O)C(=O)N[C@H]2C(=O)N[C@H]3C(=O)N[C@H](C(=O)N[C@H](C(=O)O)c4cc(O)cc(O)c4-c4cc3ccc4O)[C@H](O)c3ccc(c(Cl)c3)Oc3cc2cc(c3O[C@@H]2O[C@H](CO)[C@@H](O)[C@H](O)[C@H]2O[C@H]2C[C@](C)(N)[C@H](O)[C@H](C)O2)Oc2ccc(cc2Cl)[C@H]1O [VANC, vancomycin]
Maximum solubility (Solubility in water; about pH 3): ~19 wt %
Solubility (Solubility in water; pH 4-7.4): ≤ 2 wt %
MBEC (E. coli (25922); 6 hr exposure): >4000 µg/mL
MBEC (E. coli (25922); 24 hr exposure): >4000 µg/mL
MBEC (E. coli (25922); 72 hr exposure): >4000 µg/mL
MBEC (E. faecalis (29212); 6 hr exposure): 1000 µg/mL
MBEC (E. faecalis (29212); 24 hr exposure): 375 µg/mL
MBEC (E. faecalis (29212); 72 hr exposure): 250 µg/mL
MBEC (P. aeruginosa (27853); 6 hr exposure): >4000 µg/mL
MBEC (P. aeruginosa (27853); 24 hr exposure): >4000 µg/mL
MBEC (P. aeruginosa (27853); 72 hr exposure): >4000 µg/mL
MBEC (S. aureus (49230); 6 hr exposure): >4000 µg/mL
MBEC (S. aureus (49230); 24 hr exposure): >4000 µg/mL
MBEC (S. aureus (49230); 72 hr exposure): 2000 µg/mL
MBEC (S. aureus (BAA 1556); 6 hr exposure): 4000 µg/mL
MBEC (S. aureus (BAA 1556); 24 hr exposure): 2000 µg/mL
MBEC (S. aureus (BAA 1556); 72 hr exposure): 1000 µg/mL
MBEC (S. aureus (BAA 1680); 6 hr exposure): 4000 µg/mL
MBEC (S. aureus (BAA 1680); 24 hr exposure): 2000 µg/mL
MBEC (S. aureus (BAA 1680); 72 hr exposure): 2000 µg/mL
MBEC (S. epidermidis (29886); 6 hr exposure): 375 µg/mL
MBEC (S. epidermidis (29886); 24 hr exposure): 375 µg/mL
MBEC (S. epidermidis (29886); 72 hr exposure): 375 µg/mL
MBEC (S. epidermidis (35984); 6 hr exposure): 4000 µg/mL
MBEC (S. epidermidis (35984); 24 hr exposure): 750 µg/mL
MBEC (S. epidermidis (35984); 72 hr exposure): 375 µg/mL
MBEC (S. epidermidis (700583); 6 hr exposure): 1000 µg/mL
MBEC (S. epidermidis (700583); 24 hr exposure): 1000 µg/mL
MBEC (S. epidermidis (700583); 72 hr exposure): 1000 µg/mL
Strains with MBEC>1,000 μg/mL [3]: 6 strains
# Strains w/ MBEC ≥1000 μg/mL ([3]; 6 hr exposure): 8/10
# Strains w/ MBEC ≥1000 μg/mL ([3]; 24 hr exposure): 6/10
Max. MBEC ([3]; 24 hr exposure): >4000 µg/mL
Median MBEC ([3]; 24 hr exposure): 750 µg/mL
# Strains w/ MBEC ≥1000 μg/mL ([3]; 72 hr exposure): 6/10

C=CC(=O)NC1C(=O)OCC1(C)C (stereo not drawn) [DBLAAm, dimethyl butyrolactone acrylamide]
Effect on LCST [5]: −0.51 ° C./mol %

C=CC(=O)OC(C)(C)C [Tert-butyl acrylate, tert-butyl acrylate]
Effect on LCST [5]: −0.69 ° C./mol %
Initial structure retained [6]: poorest stability
